# According to patent EP2987533B1, “7-substituted piperazin-1-yl fluoroquinolone compounds, their use in the treatment of cancer, pharmaceutical compositions and a method for preparation” (priority 2014, dated 2016):
# How the values were obtained:
# [1] = system: renal cancer; test: NCI five-dose SRB assay, subpanel average; conditions: 48 h; for GI50 / CC50: Homo sapiens; for GI50: read-out: GI50 (median growth inhibitory); for CC50: read-out: LC50 (median lethal); for TGI (total growth inhibitory): average over renal cancer subpanel, five concentrations
# [2] = system: SF-539; test: NCI one-dose SRB growth assay; assay type: cell-based; conditions: Homo sapiens; SF-539 (CNS Cancer), 10^-5 M, 48 h; read-out: % Growth Inhibition (GI %)
# Description: (§1) A primary anticancer assay was performed for an approximately 60 human tumor cell line panel derived from nine neoplastic diseases, in accordance with the protocol of the Drug Evaluation Branch, National Cancer Institute, Bethesda, MD (Monks A. et al., J. Natl. Cancer Inst 1991, 83, 757-766; Boyd M.R. and Paull K.D., Drug. Dev. Res. 1995, 34, 91-109; Shoemaker R.H., Nat. Rev. Cancer 2006, 6, 813-823). Briefly, tested compounds were added to the culture at a single concentration (10^-5M), and the cultures were incubated for 48 h. End point determinations were made with a protein binding dye, sulforhodamine B (SRB). The results for each tested compound were reported as the growth percentage of the treated cells when compared to that of the untreated control cells. The percentage growth was evaluated spectrophotometrically versus controls not treated with test agents.
# [3] = system: NCI-H322M; test: NCI one-dose SRB growth assay; assay type: cell-based; conditions: Homo sapiens; NCI-H322M (Non-Small Cell Lung Cancer), 10^-5 M, 48 h; read-out: % Growth Inhibition (GI %)
# Description: as §1
# [4] = system: SK-OV-3; test: NCI one-dose SRB growth assay; assay type: cell-based; conditions: Homo sapiens; SK-OV-3 (Ovarian Cancer), 10^-5 M, 48 h; read-out: % Growth Inhibition (GI %)
# Description: as §1
# [5] = system: T-47D; test: NCI one-dose SRB growth assay; assay type: cell-based; conditions: Homo sapiens, T47D; T-47D (Breast Cancer), 10^-5 M, 48 h; read-out: % Growth Inhibition (GI %)
# Description: as §1
# [6] = system: K-562; test: NCI one-dose SRB growth assay; assay type: cell-based; conditions: Homo sapiens, K562; K-562 (Leukemia), 10^-5 M, 48 h; read-out: % Growth Inhibition (GI %)
# Description: as §1
# [7] = system: SN12C; test: NCI one-dose SRB growth assay; assay type: cell-based; conditions: Homo sapiens; SN12C (Renal Cancer), 10^-5 M, 48 h; read-out: % Growth Inhibition (GI %)
# Description: as §1
# [8] = system: COLO 205; test: NCI one-dose SRB growth assay; assay type: cell-based; conditions: Homo sapiens; COLO 205 (Colon Cancer), 10^-5 M, 48 h; read-out: % Growth Inhibition (GI %)
# Description: as §1
# [9] = system: HOP-62; test: NCI one-dose SRB growth assay; assay type: cell-based; conditions: Homo sapiens; HOP-62 (Non-Small Cell Lung Cancer), 10^-5 M, 48 h; read-out: % Growth Inhibition (GI %)
# Description: as §1
# [10] = system: M14; test: NCI one-dose SRB growth assay; assay type: cell-based; conditions: Homo sapiens; M14 (Melanoma), 10^-5 M, 48 h; read-out: % Growth Inhibition (GI %)
# Description: as §1
# [11] = system: OVCAR-8; test: NCI one-dose SRB growth assay; assay type: cell-based; conditions: Homo sapiens; OVCAR-8 (Ovarian Cancer), 10^-5 M, 48 h; read-out: % Growth Inhibition (GI %)
# Description: as §1
# [12] = system: ACHN; test: NCI one-dose SRB growth assay; assay type: cell-based; conditions: Homo sapiens; ACHN (Renal Cancer), 10^-5 M, 48 h; read-out: % Growth Inhibition (GI %)
# Description: as §1
# [13] = system: 786-0; test: NCI one-dose SRB growth assay; assay type: cell-based; conditions: Homo sapiens; 786-0 (Renal Cancer), 10^-5 M, 48 h; read-out: % Growth Inhibition (GI %)
# Description: as §1
# [14] = system: NCI/ADR-RES; test: NCI one-dose SRB growth assay; assay type: cell-based; conditions: Homo sapiens; NCI/ADR-RES (Ovarian Cancer), 10^-5 M, 48 h; read-out: % Growth Inhibition (GI %)
# Description: as §1
# [15] = system: SF-268; test: NCI one-dose SRB growth assay; assay type: cell-based; conditions: Homo sapiens; SF-268 (CNS Cancer), 10^-5 M, 48 h; read-out: % Growth Inhibition (GI %)
# Description: as §1
# [16] = system: BT-549; test: NCI one-dose SRB growth assay; assay type: cell-based; conditions: Homo sapiens; BT-549 (Breast Cancer), 10^-5 M, 48 h; read-out: % Growth Inhibition (GI %)
# Description: as §1
# [17] = system: NCI-H522; test: NCI one-dose SRB growth assay; assay type: cell-based; conditions: Homo sapiens; NCI-H522 (Non-Small Cell Lung Cancer), 10^-5 M, 48 h; read-out: % Growth Inhibition (GI %)
# Description: as §1
# [18] = system: MCF7; test: NCI one-dose SRB growth assay; assay type: cell-based; conditions: Homo sapiens; MCF7 (Breast Cancer), 10^-5 M, 48 h; read-out: % Growth Inhibition (GI %)
# Description: as §1
# [19] = system: MDA-MB-231/ATCC; test: NCI one-dose SRB growth assay; assay type: cell-based; conditions: Homo sapiens; MDA-MB- 231/ATCC (Breast Cancer), 10^-5 M, 48 h; read-out: % Growth Inhibition (GI %)
# Description: as §1
# [20] = system: CAKI-1; test: NCI one-dose SRB growth assay; assay type: cell-based; conditions: Homo sapiens; CAKI-1 (Renal Cancer), 10^-5 M, 48 h; read-out: % Growth Inhibition (GI %)
# Description: as §1
# [21] = system: A498; test: NCI one-dose SRB growth assay; assay type: cell-based; conditions: Homo sapiens; A498 (Renal Cancer), 10^-5 M, 48 h; read-out: % Growth Inhibition (GI %)
# Description: as §1
# [22] = system: SNB-75; test: NCI one-dose SRB growth assay; assay type: cell-based; conditions: Homo sapiens; SNB-75 (CNS Cancer), 10^-5 M, 48 h; read-out: % Growth Inhibition (GI %)
# Description: as §1
# [23] = system: OVCAR-4; test: NCI one-dose SRB growth assay; assay type: cell-based; conditions: Homo sapiens; OVCAR-4 (Ovarian Cancer), 10^-5 M, 48 h; read-out: % Growth Inhibition (GI %)
# Description: as §1
# [24] = system: 60 human tumor cell line panel; test: NCI 60 cell line one-dose SRB primary anticancer assay; assay type: cell-based; conditions: 60 cell lines assay in one dose, 10µM (title; head prints 10.0 mM), 48 h; for inhibition at 10 µM: Homo sapiens, read-out: MGI % (Mean growth inhibition percentage)
# Description: as §1
# [25] = system: colon cancer; test: NCI five-dose SRB assay, subpanel average; conditions: 48 h; for GI50 / CC50: Homo sapiens; for GI50: read-out: GI50 (median growth inhibitory); for CC50: read-out: LC50 (median lethal); for TGI (total growth inhibitory): average over colon cancer subpanel, five concentrations
# [26] = system: ovarian cancer; test: NCI five-dose SRB assay, subpanel average; conditions: 48 h; for GI50 / CC50: Homo sapiens; for GI50: read-out: GI50 (median growth inhibitory); for CC50: read-out: LC50 (median lethal); for TGI (total growth inhibitory): average over ovarian cancer subpanel, five concentrations
SMILES,GI50 [1],CC50 [1],TGI (total growth inhibitory) [1],inhibition at 10 µM [2],inhibition at 10 µM [3],inhibition at 10 µM [4],inhibition at 10 µM [5],inhibition at 10 µM [6],inhibition at 10 µM [7],inhibition at 10 µM [8],inhibition at 10 µM [9],inhibition at 10 µM [10],inhibition at 10 µM [11],inhibition at 10 µM [12],inhibition at 10 µM [13],inhibition at 10 µM [14],inhibition at 10 µM [15],inhibition at 10 µM [16],inhibition at 10 µM [17],inhibition at 10 µM [18],also measured
O=C(O)c1cn(C2CC2)c2cc(N3CCN(S(=O)(=O)c4ccc(Cl)c(Cl)c4)CC3)c(F)cc2c1=O [Compound 3b],3.19 µM,> 100 µM,87.07 µM,88.6%,78.7%,73.2%,83.7%,83.1%,89.6%,> 100%,84.8%,81.5%,94.5%,95%,72.2%,46.5%,80.4%,> 100%,> 100%,86.5%,inhibition at 10 µM [19]: 63.4%; inhibition at 10 µM [20]: 96.9%; inhibition at 10 µM [21]: 86.2%; inhibition at 10 µM [22]: 86.8%; inhibition at 10 µM [23]: 79.2%; PCE (Positive cytotoxic effect: ratio between number of cell lines with percentage growth inhibition from 10 to >100 and total number of cell lines) [24]: 58/58; RGI % (Range of growth inhibition percentage) [24]: >100.0 to 46.49%; inhibition at 10 µM [24]: 89.2%; GI50 [25]: 3.79 µM; CC50 [25]: > 100 µM; TGI (total growth inhibitory) [25]: 87.41 µM; GI50 [26]: 3.39 µM; CC50 [26]: > 100 µM; TGI (total growth inhibitory) [26]: 88.90 µM
CCn1cc(C(=O)O)c(=O)c2cc(F)c(N3CCN(S(=O)(=O)c4cccc5ccccc45)CC3)cc21 [Compound 7a],3.5 µM,> 100 µM,63.09 µM,82.6%,> 100%,84.4%,94.7%,84.6%,88.1%,> 100%,84.9%,82.1%,91.6%,> 100%,75.7%,78.7%,83.6%,> 100%,> 100%,85.4%,inhibition at 10 µM [19]: 76.1%; inhibition at 10 µM [20]: 99.1%; inhibition at 10 µM [21]: > 100%; inhibition at 10 µM [22]: 85.9%; inhibition at 10 µM [23]: 76.2%; PCE (Positive cytotoxic effect: ratio between number of cell lines with percentage growth inhibition from 10 to >100 and total number of cell lines) [24]: 58/58; RGI % (Range of growth inhibition percentage) [24]: >100.0 to 40.83%; inhibition at 10 µM [24]: 93.8%; GI50 [25]: 3.39 µM; CC50 [25]: 86.8 µM; TGI (total growth inhibitory) [25]: 67.85 µM; GI50 [26]: 3.07 µM; CC50 [26]: > 100 µM; TGI (total growth inhibitory) [26]: 62.35 µM
CCn1cc(C(=O)O)c(=O)c2cc(F)c(N3CCN(S(=O)(=O)c4ccc(Cl)cc4Cl)CC3)cc21 [Compound 2a],2.73 µM,82.5 µM,23.97 µM,91.4%,> 100%,98.3%,98.3%,89.1%,89.7%,> 100%,80.5%,84.1%,94.2%,> 100%,81.3%,90.7%,75.4%,> 100%,> 100%,10.8%,inhibition at 10 µM [19]: 74.5%; inhibition at 10 µM [20]: 95.2%; inhibition at 10 µM [21]: > 100%; inhibition at 10 µM [22]: 25.2%; inhibition at 10 µM [23]: < 10%; PCE (Positive cytotoxic effect: ratio between number of cell lines with percentage growth inhibition from 10 to >100 and total number of cell lines) [24]: 56/58; RGI % (Range of growth inhibition percentage) [24]: >100.0 to 25.22%; inhibition at 10 µM [24]: 94.2%; GI50 [25]: 3.15 µM; CC50 [25]: 77.2 µM; TGI (total growth inhibitory) [25]: 72.89 µM; GI50 [26]: 2.96 µM; CC50 [26]: 76.7 µM; TGI (total growth inhibitory) [26]: 39.54 µM
